The values that follow come from US20260256772A1, “BENZOTHIAZOLE COMPOUND AND USE THEREOF” (NANJING REJU THERAPEUTICS, INC., priority 2022, published 2026).

Structures are written as SMILES. Where only a bound is given, the exact number is not on record here.

In one test the test system is senescent cells. Description: Senescent cell killing, CellTiter-Glo cell viability. The note with it: activity of killing senescent cells; cell type not specified. The test is classed as cell-based, human, mouse. The text has this: In this test example, human non-small cell lung cancer cell line (A549 cells), human embryonic lung fibroblast cell line (IMR90 cells), human retinal pigment epithelial cells (RPE cells), mouse chondrocytes, and mouse skin fibroblasts were selected. The above cells were induced by etoposide ([…]) to obtain their senescent cells. The effect of the target compounds on the viability of normal and senescent cells above was examined, thus assessing the specific killing effect of the compounds on senescent cells above.
Briefly, senescent and normal cells above were selected and plated separately (96-well plates). […] 2A to 2E.

A further test deals with diabetic retinopathy. The test can be described thus: Mouse model of diabetic retinopathy (STZ), retinal Evans blue penetration assay. Particulars: intravitreal (IVT), 1 μL of 200 μM at 8 and 9 weeks after STZ, FIG. 4. The test is classed as in vivo. On the procedure:
The efficacy of the compounds of the present disclosure was studied in a mouse model of diabetic retinopathy by multiple administrations of streptozotocin (STZ). C57BL/6J mice at 6 to 7 weeks were weighed and their baseline blood glucose was measured (Sino). STZ (Sigma-Alderich) was injected intraperitoneally into the mice at 55 mg/Kg for five consecutive days. Age-matched controls were injected with buffer only. Blood glucose was measured again one week after the last STZ injection. 1 μL of the test compound (200 μM, a suspension formulated in 0.015% polysorbate 80, 0.2% sodium phosphate, 0.75% sodium chloride, pH 7.2) was injected intravitreally into the STZ-treated diabetic C57BL/6J mice at 8 and 9 weeks after STZ administration. 10 weeks after STZ treatment, the retinal Evans blue penetration assay was performed.

Test [1] concerns idiopathic pulmonary fibrosis. The test can be described thus: Idiopathic pulmonary fibrosis animal model (bleomycin). The test is classed as in vivo, SD rats. The note with it: intraperitoneal (IP) 5 mg/kg, 3 consecutive weeks, FIG. 6; for pathology scores: H&E and Masson staining; for WBC: alveolar lavage fluid; for HYP: lung tissue. On the procedure: In this test example, the efficacy of the compounds of the present disclosure was tested on idiopathic pulmonary fibrosis in an idiopathic pulmonary fibrosis animal model. Briefly, anesthetized 6-week-old SD rats were fixed on a foam board with medical tape. Firstly, the skin on the surface of the trachea was cut with surgical scissors to fully expose the trachea, and a 100-microlitre micro-syringe containing a certain volume of bleomycin (BLM 5 mg/kg) solution drawn based on the body weight of the rat was inserted into the trachea through the oral cavity to administer by slow bolus injection. After administration of the BLM solution, the foam plate was immediately rotated and shaken to distribute the BLM solution as evenly as possible in the lung tissue. Then the skin on the surface of the trachea was sutured with surgical sutures and about 0.5 to 1.0 mL of penicillin solution was dripped onto the epidermis to prevent infection of the surgical wound. After the 7th day of modelling, the compound solution of the present disclosure was administered via intraperitoneal (IP) injection (5 mg/kg) according to the weight of the rat for 3 consecutive weeks. Rats were euthanized by carbon dioxide on Day 28, the lung tissues were removed, the left alveolar lavage fluid was collected for white blood cell (WBC) counting, the right lung tissue portion was used for hydroxyproline (HYP) assay, and the remaining lung tissues were stained for pathology by H&E staining and Masson staining.

The next test relates to osteoarthritis. The test can be described thus: Osteoarthritis animal model. The test is classed as in vivo, mice. The note with it: intra-articular injection, FIG. 7. On the procedure: In this test example, the efficacy of the compounds of the present disclosure was tested on osteoarthritis in an osteoarthritis animal model.
The osteoarthritis animal model was constructed by the following steps. The mice were anesthetized with isoflurane, and fixed. The hair on the right hind limb of the mice was shaved and the skin was disinfected with alcohol, and the skin of the joints was cut. Under an optical microscope, the inside of the right knee joint was incised longitudinally with a blade, without cutting the patellar ligament. The patellar ligament was pulled to one side with constant hemostasis by compression with sterile cotton swabs such that the joint cavity was fully exposed. Saline was added dropwise in time to avoid the drying up of the joint cavity. The excess muscle tissue was gently separated with a blunt forceps to expose the meniscus ligament. The anterior cruciate ligament was found in the depth of the joint cavity and cut with a micro scissor. Then the wound was disinfected with penicillin solution, the muscle was sutured with sterile needle and thread, and the skin tissue was finally sutured. The efficacy of the drug was determined by intra-articular injection administration. At the endpoint of the test, continued pain threshold of the plantar was detected, and the bone joints were stained with safranin fast green.

The next test deals with Alzheimer's disease. Description: Alzheimer's disease APP×PS1 transgenic mouse model. The test is classed as in vivo. The note with it: intraperitoneal injection, 11 consecutive weeks, twice a week, FIG. 8. On the procedure:
In this test example, the efficacy of the compounds of the present disclosure was tested on Alzheimer's disease in an animal model of Alzheimer's disease. Briefly, a transgenic mouse model of APP×PS1 (purchased from Cyagen Biosciences) was selected, and the compound of the present disclosure was administered by intraperitoneal injection for 11 consecutive weeks, twice a week. Alterations in amyloid in the cerebral cortex of the mice were observed.

Another test relates to hepatic fibrosis. Description: Hepatic fibrosis mouse model (CCl4). The test is classed as in vivo, C57BL/6N mice. Particulars: FIG. 9; for serum alanine aminotransferase (ALT) levels / serum aspartate aminotransferase (AST) levels: intraperitoneal (IP) injection twice a week from third week of modelling; for pathology scores: intraperitoneal (IP) injection, liver Masson staining. As to the method: In this test example, the efficacy of the compounds of the present disclosure was tested on hepatic fibrosis in an animal model of hepatic fibrosis. Briefly, C57BL/6N mice, male, 7 to 8 weeks old, 24 to 28 g of body weight, were used. The mouse model of hepatic fibrosis was induced by intraperitoneal injection of CCl4 solution at a dosage of 1 mL/kg, with a dosing frequency of 2 times/week, and a modelling cycle of 6 weeks. Dosing via intraperitoneal injection was started starting from the third week of modelling twice a week. At the end of the test, serum was collected, and liver tissue was taken for Masson staining index assay.

A further test concerns aging skin. Description: Aging skin, naturally aging mouse model. The test is classed as in vivo, C57bl/6J mice. The note with it: skin application twice a week for 6 consecutive weeks, FIG. 10. As to the method: In this test example, aged female C57bl/6J mice (22 months old) were used. The drug was administered by skin application twice a week for 6 consecutive weeks.
A further test deals with renal fibrosis. The test can be described thus: Renal fibrosis animal model (ureter ligation). The note with it: FIG. 11; for serum creatinine (Cr) levels / urea nitrogen (BUN) levels: intraperitoneal (IP) injection from 2nd week of modelling; for pathology: intraperitoneal (IP) injection, kidney Masson staining. The test is classed as in vivo, C57BL/6J mice. On the procedure:
In this test example, the efficacy of the compound of the present disclosure was tested on renal fibrosis in an animal model of renal fibrosis. Briefly, C57BL/6J mice, male, 7 to 8 weeks old, were used. The mice were anaesthetized, made to lie supine on a foam board, and disinfected with iodophor, and a longitudinal incision was made in the skin in the middle of the lower abdomen to locate the white line of the abdominal muscle, where the abdominal muscle, fascia and peritoneal layer were dissected. After exposing the surgical field, the kidneys were exposed by pushing the stomach and mesentery of the mice to the right side with a gauze soaked with saline. The model of renal fibrosis was constructed by locating the transparent ureter from the renal pelvis along the renal artery, separating the left ureter, ligating the upper ⅓ of the left ureter, suturing the incision layer by layer, and finally disinfecting with iodophor. Dosing via intraperitoneal injection started from the 2nd week of modelling. At the end of the experiment, the mouse serum was collected, and kidney tissues were taken for Masson staining index assay.

As a reminder, the IC50 is the concentration at which inhibition is half-maximal. A lower IC50 goes with inhibition by little substance.

In the test on senescent cells, `CCN1CCN(C(=O)c2nc(N3CCc4cccc(C(=O)Nc5nc6ccccc6s5)c4C3)ccc2-c2cnn(CC34CC5CC(CC(C5)C3)C4)c2C)CC1` [RX001] showed an IC50 of 0.2 to 1 µM. For the same compound, in the test on diabetic retinopathy, the “vascular permeability, choroidal vascular leakage” value is “improved” and the “vascular permeability, retinal vascular leakage” value is “improved”. Further, in test [1], the pathology scores result was “statistically significant improvements”, the WBC result is given as “statistically significant improvements” and the HYP entry is given as “statistically significant improvements”. In the test with osteoarthritis, the “pathology scores of safranin fast green staining” value was “statistically significant improvements” and the “plantar mechanical pain threshold” value is given as “statistically significant improvements”. In addition, in the test on Alzheimer's disease, the “Aβ42 pathogenic protein indicators” value is on record as “statistically significant improvements”. In addition, in the test with hepatic fibrosis, the “serum alanine aminotransferase (ALT) levels” value is given as “statistically significant improvements”, the “serum aspartate aminotransferase (AST) levels” value was “statistically significant improvements” and the pathology scores result is “statistically significant improvements”. Also, in the test with aging skin, the “epidermal thickness scores of the skins” value is reported as “statistically significant improvements”. Moreover, in the test on renal fibrosis, the “serum creatinine (Cr) levels” value is on record as “statistically significant improvements”, the “urea nitrogen (BUN) levels” value was “statistically significant improvements” and the pathology result is on record as “statistically significant improvements”.
In the case of `Cc1c(-c2ccc(N3CCc4cccc(C(=O)Nc5nc6ccccc6s5)c4C3)nc2C(=O)N2CCC(CCOP(=O)(O)O)CC2)cnn1CC12CC3CC(CC(C3)C1)C2` [RX301], the IC50 in the test with senescent cells is less than 0.2 µM. Besides, in the test with diabetic retinopathy, the “vascular permeability, choroidal vascular leakage” value is recorded as “improved” and the “vascular permeability, retinal vascular leakage” value was “improved”. Besides, in test [1], the pathology scores entry is “statistically significant improvements”, the WBC result was “statistically significant improvements” and the HYP entry is recorded as “statistically significant improvements”. Further, in the test on osteoarthritis, the “pathology scores of safranin fast green staining” value was “statistically significant improvements” and the “plantar mechanical pain threshold” value was “statistically significant improvements”. In addition, in the test with Alzheimer's disease, the “Aβ42 pathogenic protein indicators” value was “statistically significant improvements”. For the same compound, in the test with hepatic fibrosis, the “serum alanine aminotransferase (ALT) levels” value is listed as “statistically significant improvements”, the “serum aspartate aminotransferase (AST) levels” value is recorded as “statistically significant improvements” and the pathology scores result is listed as “statistically significant improvements”. Moreover, in the test with aging skin, the “epidermal thickness scores of the skins” value was “statistically significant improvements”. Further, in the test with renal fibrosis, the “serum creatinine (Cr) levels” value is “statistically significant improvements”, the “urea nitrogen (BUN) levels” value is listed as “statistically significant improvements” and the pathology result was “statistically significant improvements”.
